Source: the NIST ThermoML archive (doi:10.1021/je0500330)

Legend:
[1] = Liquid; for speed of sound / mass density: 298.15 K, 101.33 kPa; for speed of sound: Sing-around technique in a fixed-path interferometer; for mass density: Vibrating tube method
[2] = refractive index (Na D-line) (dimensionless); conditions: 298.15 K; 101.33 kPa; Liquid; Standard Abbe refractometry
[3] = xn = mol fraction of the nth substance listed; conditions: 298.15 K, 101.3 kPa, Liquid
[4] = refractive index (Na D-line) (dimensionless); xn = mol fraction of the nth substance listed; conditions: 298.15 K, 101.3 kPa, Liquid

CCC(C)CO (centres undefined) [2-methyl-1-butanol]
Conditions | mass density [kg/m3] | refractive index | speed of sound [m/s]
[1] | 814.87 | – | 1253
[2] | – | 1.40872 | –

[1]
Conditions | vapor or sublimation pressure [kPa]
401.58 K | 101.3
401.86 K | 101.3

CCC(C)CO (centres undefined) [2-methyl-1-butanol] + CCO
Conditions | mass density, [3] [kg/m3] | refractive index, [4] | speed of sound, [3] [m/s]
x2 = 0.0486 | 814.11 | 1.40734 | 1247.7
x2 = 0.1013 | 813.23 | 1.40583 | 1245
x2 = 0.1523 | 812.31 | 1.40424 | 1241.4
x2 = 0.1987 | 811.39 | 1.40277 | 1237.6
x2 = 0.2503 | 810.38 | 1.40112 | 1233.6
x2 = 0.3004 | 809.33 | 1.39926 | 1229.6
x2 = 0.3486 | 808.22 | 1.39756 | 1225.3
x2 = 0.4003 | 807.02 | 1.39549 | 1221
x2 = 0.4502 | 805.74 | 1.39341 | 1215.9
x2 = 0.5004 | 804.41 | 1.3912 | 1210.5
x2 = 0.5502 | 803.01 | 1.38899 | 1205.4
x2 = 0.6004 | 801.43 | 1.38636 | 1199.4
x2 = 0.6503 | 799.81 | 1.38373 | 1193.1
x2 = 0.7 | 798.1 | 1.38109 | 1186.9
x2 = 0.8009 | 794.32 | 1.37475 | 1173
x2 = 0.8503 | 792.34 | 1.37134 | 1166
x2 = 0.9002 | 790.13 | 1.36758 | 1158.2
x2 = 0.9503 | 787.77 | 1.36358 | 1150.2

CCC(C)CO (centres undefined) [2-methyl-1-butanol] + CO
Conditions | mass density, [3] [kg/m3] | refractive index, [4] | speed of sound, [3] [m/s]
x2 = 0.0485 | 814.3 | 1.40702 | 1250.7
x2 = 0.1016 | 813.63 | 1.40511 | 1246.7
x2 = 0.1543 | 812.9 | 1.40324 | 1242.6
x2 = 0.1987 | 812.22 | 1.40162 | 1238.7
x2 = 0.2528 | 811.35 | 1.39907 | 1233.9
x2 = 0.3017 | 810.5 | 1.39712 | 1229
x2 = 0.3496 | 809.49 | 1.39461 | 1223
x2 = 0.4005 | 808.36 | 1.39181 | 1217
x2 = 0.4506 | 807.25 | 1.38875 | 1210.7
x2 = 0.4987 | 806.12 | 1.38569 | 1204.2
x2 = 0.5502 | 804.84 | 1.38222 | 1197.2
x2 = 0.6003 | 803.4 | 1.37832 | 1188.8
x2 = 0.6487 | 801.91 | 1.37416 | 1180.7
x2 = 0.7003 | 800.27 | 1.36946 | 1171.5
x2 = 0.7504 | 798.44 | 1.3642 | 1162.7
x2 = 0.8002 | 796.5 | 1.35846 | 1151.4
x2 = 0.8503 | 794.35 | 1.35214 | 1142.2
x2 = 0.9004 | 791.96 | 1.34482 | 1131.5
x2 = 0.9503 | 789.39 | 1.33618 | 1120.5

CCO [ethanol]
Conditions | mass density [kg/m3] | refractive index | speed of sound [m/s]
[1] | 785.36 | – | 1143
[2] | – | 1.35916 | –

Conditions | vapor or sublimation pressure [kPa]
[1], 351.5 K | 101.3

CO [methanol]
Conditions | mass density [kg/m3] | refractive index | speed of sound [m/s]
[1] | 787.14 | – | 1102
[2] | – | 1.32667 | –

Conditions | vapor or sublimation pressure [kPa]
[1], 337.65 K | 101.3
